Results taken from patent US20230338521A1, “METHODS OF TREATING CANCER USING A COMBINATION OF A PD-1 ANTAGONIST, A CHEMORADIATION THERAPY AND A PARP INHIBITOR” (priority 2020, published 2023).
Where “and” joins values, the source holds several entries; their conditions need not be identical. Identical values can stand only once.

How the values were obtained:
[1] = tested on: unresectable, locally advanced stage III NSCLC; assay: Phase 2 clinical trial of pembrolizumab plus platinum doublet chemotherapy and concurrent radiotherapy: ORR, duration of response, PFS, OS by BICR per RECIST v1.1; format: in vivo, human; conditions: pembrolizumab plus CCRT; for 6-mo OS rate / 6-mo PFS rate / Response duration ≥6 month, % / Duration of response, median (range): Kaplan-Meier estimate; for Duration of response, median (range): + = no progressive disease at last assessment; for ORR, % [90% CI]: patients with ≥15 weeks follow up, data cutoff Jan. 3, 2020
Description: (§1) FIG. 1 illustrate a schema of a clinical phase 2 study of pembrolizumab plus platinum doublet chemotherapy and concurrent radiotherapy as first-line therapy for unresectable, locally advanced stage III NSCLC (NSCLC).
(§2) This is a non-randomized, open label study. FIG. 1 sets forth a schematic of the study. The primary objective is overall response rate (ORR) per response evaluation criteria in solid tumors (RECIST) version 1.1 by blinded independent central review (BICR). Secondary objectives are progression free survival (PFS), overall survival (OS) and safety. Key eligibility criteria are as set forth in FIG. 1 and include Stage IIIA-C, unresectable, locally advanced, pathologically confirmed, previously untreated NSCLC; measurable disease based on RECIST v1.1; eastern cooperative oncology group (ECOG) performance status 0 or 1; adequate pulmonary function; and no prior systemic immunosuppressive therapy within 7 days.
The table below provides ORR and Duration of Response/Efficacy by BICR per RECIST v1.1, patients with ≥15 weeks follow up (Jan. 3, 2020 data cutoff date)
PFS and OS were assessed in patients with at least 15 weeks follow up. As shown in the table above, at the data cutoff, few patients in either cohort had experienced disease progression or died.

[2] = Phase 2 clinical trial of pembrolizumab plus platinum doublet chemotherapy and concurrent radiotherapy: grade ≥3 pneumonitis and adverse events; format: in vivo, human; conditions: pembrolizumab plus CCRT; for Grade ≥3 pneumonitis (all cause), % [90% CI]: all enrolled patients, data cutoff Jan. 3, 2020
Description: as §1, §2
A secondary primary objective of the study was incidence of grade≥3 pneumonitis, which was assessed in all enrolled patients, regardless of their follow-up duration (see table below). In both cohorts, the rate of grade≥3 pneumonitis was less than 10%. One patient in cohort B had interstitial lung disease; the remaining patients had either pneumonitis or radiation pneumonitis. Incidence of other adverse events was consistent with that reported in other pembrolizumab monotherapy studies in NSCLC. Immune-mediated adverse events and infusion reactions (regardless of attribution to study treatment by the investigator) occurred in 47% of patients in cohort A and 27% in cohort B. 15% of patients in cohort A and 8% in cohort B experienced grade 2-5 immune mediated adverse events or infusion reactions.

[3] = Cohort A, N = 112, ≥15 weeks follow up
[4] = Cohort B, N = 53, ≥15 weeks follow up

pembrolizumab: monoclonal antibody directed to the PD-1 receptor; KEYTRUDA, Merck and Co., Inc.
6-mo OS rate ([1]; Cohort A, N = 112): 87% and 87.2% | 6-mo PFS rate ([1]; Cohort A, N = 112): 81.4% | Response duration ≥6 month, % ([1]; Cohort A, N = 112): (91.1) % | Duration of response, median (range) ([1]; Cohort A, N = 112): NR (1.6+ to 10.5+) | ORR, % [90% CI] ([1]; Cohort A, N = 112): (67.0) [58.9-74.3] % | Complete response (CR), % [1, 3]: (2.7) % | No Assessment, % [1, 3]: (8.9) % | Not evaluable, % [1, 3]: (2.7) % | PD, % [1, 3]: (0.9) % | Partial response (PR), % [1, 3]: (64.3) % | 6-mo OS rate ([1]; Cohort B, N = 53): 95% and 94.8% | 6-mo PFS rate ([1]; Cohort B, N = 53): 85.2% | Response duration ≥6 month, % ([1]; Cohort B, N = 53): (100) % | Duration of response, median (range) ([1]; Cohort B, N = 53): NR (1.7+ to 10.5+) | ORR, % [90% CI] ([1]; Cohort B, N = 53): (56.6) [44.4-68.2] % | Complete response (CR), % [1, 4]: (3.8) % | No Assessment, % [1, 4]: (9.4) % | Partial response (PR), % [1, 4]: (52.8) % | ORR ([1]; both cohorts): exceeded 50% | progression free survival rate at 6 months ([1]; both cohorts, at least 15 weeks follow up): greater than 80% | Median overall survival ([1]; either cohort, at data cutoff): had not been reached | Median progression free survival ([1]; either cohort, at data cutoff): had not been reached | Estimated response duration ([1]; most patients with a response): ≥ 6 months | antitumor activity ([1]; patients with unresectable, locally advanced stage III NSCLC): promising antitumor activity | Immune-mediated adverse events and infusion reactions, Grades 3-5, % ([2]; Cohort A, N = 112): (15.2) % | Immune-mediated adverse events and infusion reactions, Led to death, % ([2]; Cohort A, N = 112): (3.6) % | Treatment Releated Adverse Events, % ([2]; Cohort A, N = 112): (93.8) % | Treatment Releated Adverse Events, Grade 3-5, % ([2]; Cohort A, N = 112): (64.3) % | Treatment Releated Adverse Events, Led to death, % ([2]; Cohort A, N = 112): (3.6) % | Treatment Releated Adverse Events, Led to discontinuation of any treatment component, % ([2]; Cohort A, N = 112): (28.6) % | Grade ≥3 pneumonitis (all cause), % [90% CI] ([2]; Cohort A, N = 112): (8.0) [4.3-13.6] % | Treatment Releated Adverse Events, % ([2]; Cohort B, N = 73): (87.7) % | Treatment Releated Adverse Events, Grade 3-5, % ([2]; Cohort B, N = 73): (41.1) % | Treatment Releated Adverse Events, Led to discontinuation of any treatment component, % ([2]; Cohort B, N = 73): (12.3) % | Grade ≥3 pneumonitis (all cause), % [90% CI] ([2]; Cohort B, N = 73): (5.5) [1.9-12.1] % | grade 2-5 immune mediated adverse events or infusion reactions, % of patients ([2]; cohort A): 15% | grade 2-5 immune mediated adverse events or infusion reactions, % of patients ([2]; cohort B): 8% | patients with interstitial lung disease (among grade ≥3 pneumonitis) ([2]; cohort B): One | incidence of adverse events ([2]; compared with CCRT for stage III NSCLC and pembrolizumab monotherapy): consistent with the established toxicity profiles | Observed rates of grade ≥3 pneumonitis ([2]; compared with immunotherapy combined with CCRT): within the expected range
